Assays:
[1] = Compound was evaluated for its ability to displace [3H]-L-364,718 from Cholecystokinin type A receptor from rat pancreas
[2] = Compound was evaluated for its ability to displace [3H]L-364718 from Cholecystokinin type A receptor from rat pancreas at dose of 0.03 umol/kg

Compound | IC50 [1] | IC50 [2]
CCC(C)(C)C(=O)CN1C(=O)C(NC(=O)Nc2cccc(C)c2)N=C(c2ccccc2)c2ccccc21 (stereo not drawn) [1-[1-(3,3-Dimethyl-2-oxo-pentyl)-2-oxo-5-phenyl-2,3-dihydro-1H-benzo[e][1,4]diazepin-3-yl]-3-m-tolyl-urea] | 720 nM | –
Cc1cccc(NC(=O)NC2N=C(c3ccccc3)c3ccccc3N(CC(=O)CC3CCCCC3)C2=O)c1 (stereo not drawn) [1-[1-(3-Cyclohexyl-2-oxo-propyl)-2-oxo-5-phenyl-2,3-dihydro-1H-benzo[e][1,4]diazepin-3-yl]-3-m-tolyl-urea] | 480 nM | –
Cc1cccc(NC(=O)NC2N=C(c3ccccc3)c3ccccc3N(CC(=O)C(C)C)C2=O)c1 (stereo not drawn) [1-[1-(3-Methyl-2-oxo-butyl)-2-oxo-5-phenyl-2,3-dihydro-1H-benzo[e][1,4]diazepin-3-yl]-3-m-tolyl-urea] | 1200 nM | –
Cc1cccc(NC(=O)N[C@@H]2N=C(c3ccccc3)c3ccccc3N(CC(=O)C3CCCC3)C2=O)c1 [1-[(R)-1-(2-Cyclopentyl-2-oxo-ethyl)-2-oxo-5-phenyl-2,3-dihydro-1H-benzo[e][1,4]diazepin-3-yl]-3-m-tolyl-urea] | 440 nM | –
Cc1cccc(NC(=O)N[C@@H]2N=C(c3ccccc3)c3ccccc3N(CC(=O)C(C)(C)C)C2=O)c1 [1-[(R)-1-(3,3-Dimethyl-2-oxo-butyl)-2-oxo-5-phenyl-2,3-dihydro-1H-benzo[e][1,4]diazepin-3-yl]-3-m-tolyl-urea] | – | 111 nM
Cc1cccc(NC(=O)N[C@H]2N=C(c3ccccc3)c3ccccc3N(CC(=O)C3CCCC3)C2=O)c1 [1-[(S)-1-(2-Cyclopentyl-2-oxo-ethyl)-2-oxo-5-phenyl-2,3-dihydro-1H-benzo[e][1,4]diazepin-3-yl]-3-m-tolyl-urea] | 2500 nM | –
Cc1cccc(NC(=O)NC2N=C(c3ccccc3)c3ccccc3N(CC(=O)C3(C)CCCCC3)C2=O)c1 (stereo not drawn) [1-{1-[2-(1-Methyl-cyclohexyl)-2-oxo-ethyl]-2-oxo-5-phenyl-2,3-dihydro-1H-benzo[e][1,4]diazepin-3-yl}-3-m-tolyl-urea] | > 10000 nM | –
Cc1cccc(NC(=O)NC2N=C(c3ccccc3)c3ccccc3N(CC(=O)C3(C)CCCC3)C2=O)c1 (stereo not drawn) [1-{1-[2-(1-Methyl-cyclopentyl)-2-oxo-ethyl]-2-oxo-5-phenyl-2,3-dihydro-1H-benzo[e][1,4]diazepin-3-yl}-3-m-tolyl-urea] | 293 nM | –

Source: BindingDB's records for doi:10.1016/0960-894X(95)00556-9 (1996)
